Where two headings read alike, the source gives them in different places. Bridge positions count the residues as written; N and C are the ends. Peptide text beside a SMILES is read from it.
Key:
KLK14 = KLK14 (Homo sapiens, UniProt Q9P0G3); experiment: Protein proteolysis: fibrinogen digestion by KLK14; format: biochemical; settings: up to a concentration of 2 μM
[1] = Stability of SFTI variants in contact with prostate cancer cells in vitro; format: in vitro ADME; settings: for half-life at 1 μM: RPMI 1640 with 10% fetal calf serum, read-out: t1/2 of residual inhibitory activity (converted)
Method: Cell monolayers of LNCaP, 22Rv1 and PC3 cells were established in RPMI 1640 medium containing 10% fetal calf serum. Each cell line was treated +/−1 μM SFTI-FCQR contained in 4.0 mL RPMI media (as above) with a vehicle control to account for inhibition by intrinsic media factors. 25 μL samples of media were taken at 0, 24, 48, 72, 96 and 120 hrs timepoints. Media samples were boiled at 97° C. for 15 min, centrifuged at 14,000 rpm for 5 min to remove cellular debris and precipitated protein. Residual SFTI-FCQR inhibitory activity in the medium was determined against recombinant KLK4 using FVQR-pNA as a peptide substrate as above using 15ng KLK4 and 30 nmol FVQR-pNA with 2.5 μL and […] of media+/−SFTI-FCQR added from each treatment.

KLK5 = KLK5 (Homo sapiens, UniProt Q9Y337); experiment: Protein proteolysis: fibrinogen digestion by KLK5; format: biochemical; settings: up to a concentration of 2 μM
Chain of KLK5 (Q9Y337 23-293): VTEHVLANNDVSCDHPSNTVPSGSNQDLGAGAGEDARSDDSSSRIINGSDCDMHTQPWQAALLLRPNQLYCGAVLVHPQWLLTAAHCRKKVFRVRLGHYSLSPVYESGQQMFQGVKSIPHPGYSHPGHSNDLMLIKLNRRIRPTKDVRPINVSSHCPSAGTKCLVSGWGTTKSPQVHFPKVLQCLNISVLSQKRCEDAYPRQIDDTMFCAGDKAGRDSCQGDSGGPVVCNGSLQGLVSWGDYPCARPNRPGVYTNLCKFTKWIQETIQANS

trypsin = target: T1, trypsin (Bos taurus, UniProt P00760); experiment: Protein proteolysis: fibrinogen digestion by trypsin (SDS-PAGE); format: biochemical, bovine; settings: up to a concentration of 2 μM
T1 construct: purchased Sigma Chemicals
T1 sequence (P00760 18-246 limits assumed): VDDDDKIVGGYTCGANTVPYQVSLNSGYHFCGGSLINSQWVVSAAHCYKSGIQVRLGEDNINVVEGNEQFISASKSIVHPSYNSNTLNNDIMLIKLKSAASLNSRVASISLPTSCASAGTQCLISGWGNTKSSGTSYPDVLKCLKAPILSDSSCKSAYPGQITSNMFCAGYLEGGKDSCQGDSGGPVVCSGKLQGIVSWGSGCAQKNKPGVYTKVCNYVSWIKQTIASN
Method: Fibrinogen was solubilised in assay buffer to a final concentration of 1 mg/ml and digested with KLK4 (+/−inhibitor) over a period of 90 minutes at 37° C. Typically assays consisted of 5 μM protein substrate and 2.5 nM KLK4 protein or 1 nM trypsin made up to a final volume of 8 μl with assay buffer. Proteolysis was initiated by addition of KLK4 and terminated by addition of SDS PAGE sample buffer and heat denaturation at 100° C. for 5 minutes. Hydrolysis products were resolved on 10% SDS PAGE gels and compared with incubations terminated immediately after initiation (time 0), and substrate proteins incubated in assay buffer for 90 minutes in the absence of KLK4 or 4-16 mins with trypsin.

iKLK4 = experiment: KLK4 stimulated calcium release in LMF stably expressing human PAR-2; format: cell-based
Method: Lung murine fibroblasts (LMF) from Par-1 null mice stably expressing human PAR-2 were grown to 80% confluence as previously described, washed with PBS, detached nonenzymatically, resuspended (4×10^6 cells/ml) in extracellular medium (121 mM NaCl, 5.4 mM KCl, 0.8 mM MgCl2, 1.8 mM CaCl2, 5.5 mM glucose, 25 mM HEPES (pH 7.4)) containing 0.2% (w/v) bovine serum albumin (Sigma) and then loaded with the fluorescence indicator Fura-2 acetoxymethyl ester (1.0 μM; Invitrogen) at room temperature for 60 min. Cells were then pelleted followed by resuspension in extracellular medium (without bovine serum albumin) at a concentration of 2×10^6 cells/ml for fluorescence measurements. The ratio of fluorescence at 510 nm after excitation at 340 and 380 nm was monitored (Polarstar Optima fluorescent plate reader) during treatment with bovine β trypsin (Sigma Chemicals), PAR-2 activating peptide SLIGKV (AusPep) and iKLK4 with or without SFTI-FCQR.

bovine plasminogen = target: T2, bovine plasminogen (Bos taurus, UniProt P06868); experiment: Inhibitor kinetics: plasminogen amidolytic activity; format: biochemical; settings: substrate L-pNA, BAPNA (0.2 mM)
T2 construct: purchased Sigma Chemicals; host or cells: bovine plasma
T2 sequence (P06868 27-812 limits assumed): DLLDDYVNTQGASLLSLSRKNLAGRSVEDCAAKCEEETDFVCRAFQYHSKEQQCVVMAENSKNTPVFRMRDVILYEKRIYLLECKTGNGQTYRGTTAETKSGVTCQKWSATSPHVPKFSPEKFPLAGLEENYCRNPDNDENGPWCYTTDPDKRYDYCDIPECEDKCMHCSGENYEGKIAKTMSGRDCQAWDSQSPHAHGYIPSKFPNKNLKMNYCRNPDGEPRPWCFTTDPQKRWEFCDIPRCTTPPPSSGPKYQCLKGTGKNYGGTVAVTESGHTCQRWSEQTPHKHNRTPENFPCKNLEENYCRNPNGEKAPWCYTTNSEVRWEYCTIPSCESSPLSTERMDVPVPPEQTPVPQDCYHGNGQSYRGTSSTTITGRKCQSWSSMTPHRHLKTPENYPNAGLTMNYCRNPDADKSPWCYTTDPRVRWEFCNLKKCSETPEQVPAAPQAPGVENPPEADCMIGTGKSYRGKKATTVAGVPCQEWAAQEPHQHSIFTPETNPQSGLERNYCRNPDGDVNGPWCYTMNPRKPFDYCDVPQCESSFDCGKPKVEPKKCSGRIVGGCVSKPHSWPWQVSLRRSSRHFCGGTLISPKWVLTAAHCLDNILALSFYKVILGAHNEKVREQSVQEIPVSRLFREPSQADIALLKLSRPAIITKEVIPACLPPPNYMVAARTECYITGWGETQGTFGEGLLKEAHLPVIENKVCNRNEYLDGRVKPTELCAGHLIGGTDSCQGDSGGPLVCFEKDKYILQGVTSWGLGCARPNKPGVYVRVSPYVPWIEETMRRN
Method: All enzymes and substrates were obtained from Sigma Chemicals if not otherwise specified. […] The release of pNa moiety was monitored as described above for 7 minutes with each point being the average of three independent triplicate reactions. IC50 was determined using the Prism 5 software suite (GraphPad software Inc.).

KLK4 = KLK4 (Homo sapiens, UniProt Q9Y5K2); experiment: Inhibitor kinetics: KLK4 amidolytic activity with peptide-pNA substrates; format: biochemical; parameters: pro-region of PSA (KLK3), replacing the native KLK4 pro-region (N, cleaved yes); made in house
Chain of KLK4 (Q9Y5K2 31-254): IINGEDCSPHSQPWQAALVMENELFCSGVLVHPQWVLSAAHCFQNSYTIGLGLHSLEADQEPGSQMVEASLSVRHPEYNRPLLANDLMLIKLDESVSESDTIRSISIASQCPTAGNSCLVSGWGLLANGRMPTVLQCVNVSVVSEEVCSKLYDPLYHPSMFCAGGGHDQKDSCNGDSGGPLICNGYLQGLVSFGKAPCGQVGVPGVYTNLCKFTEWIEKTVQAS
Method: Human recombinant KLK4 was expressed in E. coli using a previously described chimeric KLK4 plasmid construct where the native pro-region was replaced with the pro-region of PSA, enabling autoactivation. Protein was expressed as inclusion bodies which were isolated and solubilised as described previously to yield 90% pure KLK4. Protein refolding was performed by dilution into 100 volumes of refolding buffer I (2 M urea, 0.1M NaCl, 5 mM GSH, 0.5 mM GSSG, 10 mM benzamidine, 50 mM tris HCl pH 8.0, 2 mM CaCl2) over 44 hours before further dilution into 3 volumes refolding buffer II (refolding buffer I with 0.5 M urea 0.5 mM GSH, 0.05 mM GSSG, 2 mM CaCl2) over another 24 hours. Dialysis was performed as previously described (with additional 2 mM CaCl2 to reduce aggregation) before concentration using UNO sphere Q (Biorad) eluting with tris buffered saline (pH 7.5)/2 mM CaCl2. Subsequently, the material was purified to apparent homogeneity (according to coomassie blue stained SDS PAGE) by gel filtration using Sephacryl S-200 (GE Health Care) pre-equilibrated with 50 mM Tris-HCl pH 7.5, 20 mM NaCl and 2 mM CaCl2.
All enzymes and substrates were obtained from Sigma Chemicals if not otherwise specified. Bacterially expressed human KLK4 (37 ng), bovine β-trypsin (20 ng), bovine thrombin (20 ng), bovine α-chymotrypsin (0.5 μg), protease (0.5 μg; Streptomyces griseus type XIV), bovine plasminogen (0.5 μg), and human matriptase (30 ng; R&D Systems) were incubated with various concentrations of inhibitors in 200 μL assay buffer for 10 minutes prior to initiation by the addition of 100 μL of 0.3 mM of peptide-pNA substrates (FVQR-pNA: KLK4; BAPNA: trypsin, (Streptomyces griseus Type XIV Protease and bovine plasma plasminogen); Bz-Phe-Val-Arg-pNA: thrombin and matriptase; Trp-pNA: α-chymotrypsin; Leu-pNA: (Streptomyces griseus Type XIV Protease and bovine plasma plasminogen). The release of pNa moiety was monitored as described above for 7 minutes with each point being the average of three independent triplicate reactions. IC50 was determined using the Prism 5 software suite (GraphPad software Inc.).

KLK2 = KLK2 (Homo sapiens, UniProt P20151); experiment: Protein proteolysis: fibrinogen digestion by KLK2; format: biochemical; settings: up to a concentration of 2 μM
Chain of KLK2 (P20151 25-261): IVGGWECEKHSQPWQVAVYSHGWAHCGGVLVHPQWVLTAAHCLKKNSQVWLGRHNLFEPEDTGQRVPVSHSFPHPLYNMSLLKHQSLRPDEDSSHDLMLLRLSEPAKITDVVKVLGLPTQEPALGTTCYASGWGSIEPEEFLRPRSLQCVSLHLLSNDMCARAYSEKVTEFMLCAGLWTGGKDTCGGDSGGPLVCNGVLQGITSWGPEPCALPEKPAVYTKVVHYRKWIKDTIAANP

Chain of KLK14 (Q9P0G3 35-267 limits assumed): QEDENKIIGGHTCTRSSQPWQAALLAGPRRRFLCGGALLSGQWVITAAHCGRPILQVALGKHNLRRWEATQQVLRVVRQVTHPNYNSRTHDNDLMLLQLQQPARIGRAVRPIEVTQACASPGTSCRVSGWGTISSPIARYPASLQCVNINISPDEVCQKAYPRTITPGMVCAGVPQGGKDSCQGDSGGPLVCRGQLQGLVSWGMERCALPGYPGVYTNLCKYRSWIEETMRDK

CC[C@H](C)[C@@H]1NC(=O)[C@@H]2CCCN2C(=O)[C@@H]2CCCN2C(=O)[C@H]([C@@H](C)CC)NC(=O)[C@H](CO)NC(=O)[C@H](CCCNC(=N)N)NC(=O)[C@H](CCC(N)=O)NC(=O)[C@@H]2CSSC[C@H](NC1=O)C(=O)N[C@@H](Cc1ccccc1)C(=O)N1CCC[C@H]1C(=O)N[C@@H](CC(=O)O)C(=O)NCC(=O)N[C@@H](Cc1ccccc1)C(=O)N2 [SFTI-FCQR] (cyclo(GFCQRSIPPICFPD); disulfide 3-11)
inhibition of KLK14 digestion of fibrinogen (KLK14): no inhibition | residual inhibition of recombinant KLK4 by tissue culture supernatant ([1]; 1:5 dilution of supernatant, after a week of contact with prostate cancer cells): complete inhibition | half-life at 1 μM ([1]; 22Rv1 cell monolayers, 1 μM incubated with 22RV1 cells): 117 h | half-life at 1 μM ([1]; LNCaP cell monolayers, 1 μM incubated with LNCaP cells): 119 h | half-life at 1 μM ([1]; PC3 cell monolayers, 1 μM incubated with PC3 cells): 89 h | inhibition of KLK5 digestion of fibrinogen (KLK5): no inhibition | inhibition of tryptic digestion of fibrinogen (trypsin): no inhibition | effect on KLK4 stimulated calcium release (iKLK4; 1 μM SFTI-FCQR, iKLK4 300 nM): extremely robust blockade of calcium release | inhibition of KLK4 stimulated calcium flux (iKLK4; at a concentration of 1 mM (as printed in discussion)): complete inhibition | IC50 (bovine plasminogen): did not inhibit | IC50 (bovine plasminogen; read-out: IC50): > 10000 nM | IC50 (KLK4): 7.97 ± 1.08 nM | Ki (KLK4): 3.59 ± 1.08 nM | inhibition of KLK2 digestion of fibrinogen (KLK2): no inhibition

Source: patent US20110172163A1, “Novel Protease Inhibitors” (QUEENSLAND UNIVERSITY OF TECHNOLOGY, priority 2008, published 2011)
